Assay results published in the supplement of paper PMC10307832.

Columns and labels:
Test in all cases: relative viability (nuclei count vs DMSO), 5 days (fraction); higher = more cells survive
Ruxolitinib + Tozasertib = compound: N#CC[C@H](C1CCCC1)n1cc(-c2ncnc3[nH]ccc23)cn1 [Ruxolitinib] + Cc1cc(Nc2cc(N3CCN(C)CC3)nc(Sc3ccc(NC(=O)C4CC4)cc3)n2)n[nH]1 [Tozasertib] (partner 0.1 µM)
Summary of the method: (§1)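 The day after seeding in 1536-well plates, lung cancer cell lines were treated by pin tool with a single drug, or with a fixed anchor-drug dose together with five library-drug doses (not always all listed) in √10 steps. After 5 days, a combined fix-and-stain solution (final 0.05% Triton X-100, 1% formaldehyde, 1 ug/ml Hoechst) was added. Nuclei counted on 4× images gave relative viability as treated counts over vehicle counts, reported as the median of duplicate plates.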

VE-821 + Pemetrexed = compound: CS(=O)(=O)c1ccc(-c2cnc(N)c(C(=O)Nc3ccccc3)n2)cc1 [VE-821] + Nc1nc2[nH]cc(CCc3ccc(C(=O)N[C@@H](CCC(=O)O)C(=O)O)cc3)c2c(=O)[nH]1 [Pemetrexed] (partner 0.2 µM)
Summary of the method: as §1

VE-821 + Vorinostat = compound: CS(=O)(=O)c1ccc(-c2cnc(N)c(C(=O)Nc3ccccc3)n2)cc1 [VE-821] + O=C(CCCCCCC(=O)Nc1ccccc1)NO [Vorinostat] (partner 1 µM)
Summary of the method: as §1

Ruxolitinib + Olaparib = compound: N#CC[C@H](C1CCCC1)n1cc(-c2ncnc3[nH]ccc23)cn1 [Ruxolitinib] + O=C(c1cc(Cc2n[nH]c(=O)c3ccccc23)ccc1F)N1CCN(C(=O)C2CC2)CC1 [Olaparib] (partner 8 µM)
Summary of the method: as §1

Cell Line	relative viability (Ruxolitinib + Tozasertib; first compound 0.08 µM)	relative viability (Ruxolitinib + Tozasertib; first compound 0.253 µM)	relative viability (Ruxolitinib + Tozasertib; first compound 0.8 µM)	relative viability (Ruxolitinib + Tozasertib; first compound 2.53 µM)	relative viability (Ruxolitinib + Tozasertib; first compound 8 µM)	relative viability (VE-821 + Pemetrexed; first compound 0.08 µM)	relative viability (VE-821 + Pemetrexed; first compound 0.253 µM)	relative viability (VE-821 + Pemetrexed; first compound 0.8 µM)	relative viability (VE-821 + Pemetrexed; first compound 2.53 µM)	relative viability (VE-821 + Pemetrexed; first compound 8 µM)	relative viability (VE-821 + Vorinostat; first compound 0.08 µM)	relative viability (VE-821 + Vorinostat; first compound 0.253 µM)	relative viability (VE-821 + Vorinostat; first compound 0.8 µM)	relative viability (VE-821 + Vorinostat; first compound 2.53 µM)	relative viability (VE-821 + Vorinostat; first compound 8 µM)	relative viability (Ruxolitinib + Olaparib; first compound 0.08 µM)	relative viability (Ruxolitinib + Olaparib; first compound 0.253 µM)	relative viability (Ruxolitinib + Olaparib; first compound 0.8 µM)	relative viability (Ruxolitinib + Olaparib; first compound 2.53 µM)	relative viability (Ruxolitinib + Olaparib; first compound 8 µM)
NCI-H1755	0.561	0.525	0.622	0.616	0.557	0.464	0.655	0.431	0.361	0.247	0.778	0.638	0.734	0.792	0.615	0.897	0.812	0.925	0.772	0.792
LOU-NH91	–	0.627	0.744	0.65	0.632	0.385	0.355	0.345	0.323	0.4	0.885	0.879	0.919	0.966	0.825	0.757	0.895	0.97	0.853	0.813
NCI-H1975	0.724	0.78	0.682	0.767	0.389	0.297	0.282	0.264	0.213	0.167	0.749	0.697	0.706	0.647	0.516	0.854	0.786	0.716	0.675	0.421
CAL-12T	0.348	0.412	0.344	0.313	0.312	1.22	1.14	1.04	1.1	0.759	0.931	0.762	0.826	0.833	0.686	0.627	0.779	0.756	0.673	0.67
NCI-H441	0.63	0.629	0.716	0.625	0.587	0.283	0.264	0.24	0.276	0.264	0.833	0.765	0.951	0.921	0.435	0.508	0.54	0.502	0.472	0.484
NCI-H1944	0.248	0.263	0.24	0.292	0.266	0.693	0.695	0.495	0.384	0.172	0.581	0.498	0.498	0.492	0.243	0.431	0.426	0.428	0.399	0.448
RERF-LC-KJ	0.401	0.492	0.555	0.495	0.384	0.495	0.504	0.46	0.457	0.376	0.765	0.731	0.609	0.761	0.623	0.966	0.881	0.948	0.844	0.626
NCI-H838	0.299	0.23	0.256	0.223	0.225	0.259	0.264	0.21	0.17	0.159	0.755	0.688	0.697	0.69	0.542	0.801	0.718	0.62	0.4	0.202
